The NIST ThermoML archive (doi:10.1021/acs.jced.8b00132)
Several values for one entry are separate records, joined by “and”; a condition that tells them apart may be missing. Identical values can stand only once.

O=C(C(F)(F)C(F)(F)F)C(F)(C(F)(F)F)C(F)(F)F [dodecafluoro-2-methylpentan-3-one]
Details	thermal conductivity
416.9 K, 36 kPa, Gas, hot wire	0.02006 W/m/K
416.9 K, 371 kPa, Gas, hot wire	0.0221 W/m/K
416.9 K, 588 kPa, Gas, hot wire	0.02223 W/m/K
416.9 K, 16292 kPa, Liquid, transient hot wire	0.05129 W/m/K
416.91 K, 372 kPa, Gas, hot wire	0.02173 W/m/K
416.94 K, 50897 kPa, Liquid, transient hot wire	0.06577 W/m/K
416.94 K, 50918 kPa, Liquid, transient hot wire	0.06559 W/m/K
416.96 K, 1022 kPa, Gas, transient hot wire	0.02164 W/m/K
416.96 K, 2206 kPa, Liquid, transient hot wire	0.04045 W/m/K
416.96 K, 24851 kPa, Liquid, transient hot wire	0.05549 W/m/K
416.96 K, 24868 kPa, Liquid, transient hot wire	0.05555 W/m/K
416.96 K, 35761 kPa, Liquid, transient hot wire	0.06013 W/m/K
416.97 K, 1022 kPa, Gas, transient hot wire	0.02164 W/m/K
416.97 K, 2207 kPa, Liquid, transient hot wire	0.04051 W/m/K
416.97 K, 35765 kPa, Liquid, transient hot wire	0.06009 W/m/K
416.98 K, 10573 kPa, Liquid, transient hot wire	0.04835 W/m/K
416.98 K, 10595 kPa, Liquid, transient hot wire	0.04788 W/m/K
417 K, 369 kPa, Gas, hot wire	0.0224 W/m/K
417 K, 1132 kPa, Gas, transient hot wire	0.02284 W/m/K
417.01 K, 369 kPa, Gas, hot wire	0.02218 W/m/K
417.01 K, 1132 kPa, Gas, transient hot wire	0.02288 W/m/K
417.02 K, 6421 kPa, Liquid, transient hot wire	0.04518 W/m/K
417.03 K, 36 kPa, Gas, hot wire	0.01958 W/m/K
417.04 K, 587 kPa, Gas, hot wire	0.0216 W/m/K
417.04 K, 6421 kPa, Liquid, transient hot wire	0.0448 W/m/K
417.05 K, 587 kPa, Gas, hot wire	0.02156 W/m/K
417.06 K, 16291 kPa, Liquid, transient hot wire	0.05136 W/m/K
417.06 K, 16299 kPa, Liquid, transient hot wire	0.05141 W/m/K
417.07 K, 1170 kPa, Liquid, transient hot wire	0.03917 W/m/K
417.07 K, 50875 kPa, Liquid, transient hot wire	0.06482 W/m/K
417.08 K, 3783 kPa, Liquid, transient hot wire	0.04192 W/m/K
417.08 K, 3784 kPa, Liquid, transient hot wire	0.04234 W/m/K
417.08 K, 50878 kPa, Liquid, transient hot wire	0.06554 W/m/K
417.11 K, 1022 kPa, Gas, transient hot wire	0.02183 W/m/K
417.11 K, 1023 kPa, Gas, transient hot wire	0.02181 W/m/K
417.11 K, 24870 kPa, Liquid, transient hot wire	0.05563 W/m/K
417.11 K, 35758 kPa, Liquid, transient hot wire	0.06018 W/m/K
417.11 K, 35760 kPa, Liquid, transient hot wire	0.06018 W/m/K
417.12 K, 368 kPa, Gas, hot wire	0.02238 W/m/K
417.12 K, 24862 kPa, Liquid, transient hot wire	0.05569 W/m/K
417.13 K, 2206 kPa, Liquid, transient hot wire	0.04049 W/m/K
417.13 K, 10587 kPa, Liquid, transient hot wire	0.0479 W/m/K
417.14 K, 36 kPa, Gas, hot wire	0.02006 W/m/K
417.15 K, 141 kPa, Gas, hot wire	0.02023 W/m/K and 0.0203 W/m/K
417.15 K, 588 kPa, Gas, hot wire	0.02157 W/m/K
417.15 K, 2206 kPa, Liquid, transient hot wire	0.04048 W/m/K
417.15 K, 10596 kPa, Liquid, transient hot wire	0.04784 W/m/K
417.16 K, 36 kPa, Gas, hot wire	0.01976 W/m/K
417.16 K, 367 kPa, Gas, hot wire	0.02181 W/m/K
417.16 K, 587 kPa, Gas, hot wire	0.02144 W/m/K
417.17 K, 1132 kPa, Gas, transient hot wire	0.02232 W/m/K
417.21 K, 6422 kPa, Liquid, transient hot wire	0.04496 W/m/K
417.21 K, 50843 kPa, Liquid, transient hot wire	0.06558 W/m/K
417.22 K, 6424 kPa, Liquid, transient hot wire	0.04481 W/m/K
417.22 K, 16290 kPa, Liquid, transient hot wire	0.05134 W/m/K
417.23 K, 16286 kPa, Liquid, transient hot wire	0.05137 W/m/K
417.23 K, 50866 kPa, Liquid, transient hot wire	0.06561 W/m/K
417.27 K, 36 kPa, Gas, hot wire	0.02022 W/m/K and 0.02032 W/m/K
417.28 K, 1023 kPa, Gas, transient hot wire	0.02198 W/m/K and 0.02197 W/m/K
417.28 K, 3783 kPa, Liquid, transient hot wire	0.04235 W/m/K
417.28 K, 3784 kPa, Liquid, transient hot wire	0.04243 W/m/K
417.28 K, 24853 kPa, Liquid, transient hot wire	0.0557 W/m/K
417.28 K, 24856 kPa, Liquid, transient hot wire	0.0557 W/m/K
417.28 K, 35752 kPa, Liquid, transient hot wire	0.06016 W/m/K
417.28 K, 35756 kPa, Liquid, transient hot wire	0.06019 W/m/K
417.29 K, 367 kPa, Gas, hot wire	0.02172 W/m/K
417.29 K, 996 kPa, Gas, transient hot wire	0.02211 W/m/K and 0.02184 W/m/K
417.31 K, 140 kPa, Gas, hot wire	0.02018 W/m/K
417.32 K, 140 kPa, Gas, hot wire	0.02001 W/m/K
417.32 K, 10582 kPa, Liquid, transient hot wire	0.04781 W/m/K
417.32 K, 10584 kPa, Liquid, transient hot wire	0.04786 W/m/K
417.33 K, 788 kPa, Gas, transient hot wire	0.02096 W/m/K
417.33 K, 791 kPa, Gas, transient hot wire	0.02134 W/m/K
417.33 K, 2205 kPa, Liquid, transient hot wire	0.04065 W/m/K
417.34 K, 2205 kPa, Liquid, transient hot wire	0.0406 W/m/K
417.36 K, 50814 kPa, Liquid, transient hot wire	0.06551 W/m/K
417.37 K, 50821 kPa, Liquid, transient hot wire	0.0652 W/m/K
417.39 K, 16280 kPa, Liquid, transient hot wire	0.05131 W/m/K
417.4 K, 6421 kPa, Liquid, transient hot wire	0.0453 W/m/K
417.4 K, 6422 kPa, Liquid, transient hot wire	0.04487 W/m/K
417.41 K, 597 kPa, Gas, transient hot wire	0.02073 W/m/K
417.42 K, 36 kPa, Gas, hot wire	0.02028 W/m/K and 0.02029 W/m/K
417.43 K, 595 kPa, Gas, transient hot wire	0.02069 W/m/K
417.43 K, 1024 kPa, Gas, transient hot wire	0.02226 W/m/K and 0.02228 W/m/K
